{"source": "patent US20070254907A1", "about": "“COMPOSITIONS AND METHODS FOR CONTROLLING INFESTATION” (HATCHTECH PTY LTD, priority 2003, published 2007)", "key": {"[1]": {"test_system": "Helicoverpa armigera eggs", "test": "Egg hatching of Helicoverpa armigera", "conditions": "1% diethoxyglycol in water (FIG. 6)"}, "H. contortus eggs": {"test_system": "H. contortus eggs", "test": "Egg hatching in Haemonchus contortus", "format": "in vivo", "protocol": "In an attempt to improve control of H. contortus the effects of the compound 5,5′-dimethyl-2,2′-dipyridyl was examined on H. contortus eggs. Eggs were recovered from the faeces of infected sheep using a standard sucrose floatation method. The eggs were corrected to a density of approximately 2,500 eggs per mL and were then exposed to varying concentrations of compound and incubated for 48 hours at 25° C. The eggs were then examined to determine the ovicidal efficacy of the compound in comparison to untreated control and a solvent only control.\nIn addition, the ovicidal efficacy of the compound 2-acetyl-1-tetralone was examined against H. contortus (FIG. 10). The same protocol was used as described for 5,5′-dimethyl-2,2′-dipyridyl."}, "Plutella xylostella eggs": {"test_system": "Plutella xylostella eggs", "test": "whole plant or invertebrate", "format": "in vivo", "conditions": "for ovicidal efficacy against Plutella: 1% diethoxyglycol (FIG. 7)", "protocol": "The ovicidal efficacy of 2-acetyl-1-tetralone was also tested against Plutella eggs."}, "[2]": {"test_system": "proteases in egg shell washings (ESW) of lice eggs", "test": "Gelatin substrate SDS-PAGE of lice egg shell washings (ESW) incubated with protease inhibitors", "format": "biochemical, Pediculus humanus humanus", "conditions": "gel strips incubated with inhibitor: PMSF 5 mM, 1,10-phenanthroline 10 mM, EDTA 10 mM, pepstatin 5 μM, E-64 10 μM", "protocol": "Within 12 hours of hatching 50 body lice eggs (Pediculus humanus humanus) were removed from the hair and placed in a 1 mL eppendorf tube. 20 μL of distilled water was added to the unhatched eggs and the preparation incubated for 30 minutes at 32° C. The 20 μL was recovered, freeze dried and stored at −70° C. This sample was referred to as sample 1. A number of other samples were also collected as described. Sample 2 was collected by removing the unhatched louse eggs from four hairs that were approximately 3 cm long, cutting the hair into 0.5 cm lengths, and placing them into a microfuge tube containing 20 μl of distilled water and incubating at 32° C. for 30 minutes. Sample 3 was collected as for sample 2, but the hair was placed in a tube containing 10 mL of 1% sodium hypochlorite for 1 minute followed by five 1 minute washes in 25 mL of distilled water to remove the sodium hypochlorite before being incubated in a microfuge tube containing 20 μl of distilled water and incubated as for Sample 2. Sample 4 was collected from unhatched eggs which were removed from the hair and washed with 1% sodium hypochlorite and incubated in 20 μl of distilled water in the same manner as the hair in Sample 3. Finally, Sample 5 was collected from eggs that were within 24 hrs of hatching which were washed with 1% sodium hypochlorite, then returned to the incubator at 32° C. until they hatched, the empty egg shells collected 0-2 hrs after egg-hatching, placed in a 1 mL microfuge tube containing 20 μl of distilled water and incubated as for Samples 1-4. For all samples 1-5 the 20 μl of fluid was recovered, freeze-dried and stored at −70° C. The washings recovered from these freshly hatched egg shells are referred to as egg-shell-washings (ESWs). In order to look for the presence of proteases present in these different samples, the freeze-dried samples were resuspended in 15 μL of non-reducing SDS sample buffer, centrifuged at 10,000 g for 2 minutes and the entire 15 μL loaded on to 10% gelatine substrate SDS-PAGE gels. Gels were run at 4° C. for 10 minutes at 10 mA followed by a further 25 minutes at 15 mA per gel. They were then incubated for 2×20 minutes in a 2.5% Triton-X 100 solution followed by a three hour incubation in 0.1M Tris/HCl containing 1 mM CaCl2 pH 8.0. Activity was detected as clear areas on the gel the result of protease activity degrading the gelatine within the gel.\nProtease activity in the ESWs from louse eggs was also examined using two-dimensional gel electrophoresis. It was necessary to collect large numbers of freshly hatched egg shells. Following egglaying onto pieces of cloth, adult female lice were removed and the cloth with the eggs washed with 1% sodium hypochlorite as for collection of ESWs. The eggs were then returned to the incubator and permitted to hatch. Typically 100 to 500 hatched egg shells were collected (0-2 hours post hatching), placed in a microfuge tube containing 200 μl of distilled water, incubated and sample treated as described above. For analysis, ESWs were resuspended in rehydration buffer (8 M Urea, 2% 3-[(3-cholamidopropyl) dimethylammonio]-1-propanesulfonate 2% Immobilised pH gradient buffer 3-10 (Amersham Phamacia Biotech, Uppsala, Sweden)) and used to rehydrate 7 cm Immobiline Dry strips pH 3-10 (Amersham Bioscience) overnight. Strips were transferred to the Multiphor II (Pharmacia, Sweden) apparatus, electrophoresed in the first dimension at 200 V for 1 min, increasing to 3,500 V over the next 90 min followed by 65 min at 3,500 V, equilibrated (6 M urea, 30% glycerol, 50 mM Tris pH 8.8 and 2% SDS) and then run on a 10% SDS-PAGE gel containing 0.1% gelatin for the second dimension. The gel was then run and developed as previously described.\n10% SDS-PAGE gelatine substrate gels were loaded with freeze dried egg shell washings from 100 lice eggs that had been resuspended in 50 μL of non-reducing sample buffer with samples run at 10 μL per lane. […]"}}, "note": "Square brackets hold non-standard residues; d marks the D form. Peptide text beside a SMILES is read from it. * marks the point of attachment. Sta = CC(C)C[C@H](N)[C@@H](O)CC(=O)O; Isovaleryl = CC(C)CC(=O)*"}
{"smiles": "CC(=O)C1CCc2ccccc2C1=O", "note": "(stereo not drawn) [2-acetyl-1-tetralone]", "values": [{"measurement": "ovicidal efficacy against H. armigera eggs", "setting": "[1]; 1 mM", "result": "efficacy declining"}, {"measurement": "ovicidal efficacy against H. armigera eggs", "setting": "[1]; 2 mM", "result": "strong ovicidal efficacy"}, {"measurement": "inhibition of H. contortus egg hatch", "setting": "H. contortus eggs; 22 ug/mL (0.1 mM) (FIG. 10)", "result": "Partial inhibition of egg hatching"}, {"measurement": "inhibition of H. contortus egg hatch", "setting": "H. contortus eggs; 220 ug/mL (1 mM) and 110 ug/mL (0.5 mM) (FIG. 10)", "result": "highly effective at inhibiting egg hatch"}, {"measurement": "ovicidal efficacy against Plutella", "setting": "Plutella xylostella eggs; 0.5 mM", "result": "no inhibition observed"}, {"measurement": "ovicidal efficacy against Plutella", "setting": "Plutella xylostella eggs; 2 and 1 mM", "result": "strong ovicidal efficacy"}, {"measurement": "inhibition at 1000 µM", "setting": "Plutella xylostella eggs; Plutella xylostella, Plutella (P), 1 mM, read-out: Ovicidal activity %", "result": 100, "unit": "%"}, {"measurement": "inhibition at 10000 µM", "setting": "Plutella xylostella eggs; Plutella xylostella, Plutella (P), 10 mM, read-out: Ovicidal activity %", "result": 100, "unit": "%"}]}
{"smiles": "CC(C)C[C@H](NC(=O)[C@H]1O[C@@H]1C(=O)O)C(=O)NCCCCN=C(N)N", "note": "[E-64]", "values": [{"measurement": "protease activity of ESW on gelatin SDS-PAGE compared to untreated controls", "setting": "[2]", "result": "no apparent reduction in protease activity"}]}
{"smiles": "O=C(O)CN(CCN(CC(=O)O)CC(=O)O)CC(=O)O", "note": "[EDTA, ethylenediamine tetraacetic acid]", "values": [{"measurement": "protease activity of ESW on gelatin SDS-PAGE compared to untreated controls", "setting": "[2]", "result": "reduction in protease activity"}]}
{"smiles": "O=S(=O)(F)Cc1ccccc1", "note": "[PMSF]", "values": [{"measurement": "protease activity of ESW on gelatin SDS-PAGE compared to untreated controls", "setting": "[2]", "result": "no apparent reduction in protease activity"}]}
{"smiles": "CC(C)CC(=O)N[C@H](C(=O)N[C@H](C(=O)N[C@@H](CC(C)C)[C@@H](O)CC(=O)N[C@@H](C)C(=O)N[C@@H](CC(C)C)[C@@H](O)CC(=O)O)C(C)C)C(C)C", "note": "[pepstatin] (Isovaleryl-VV[Sta]A[Sta]-OH)", "values": [{"measurement": "protease activity of ESW on gelatin SDS-PAGE compared to untreated controls", "setting": "[2]", "result": "no apparent reduction in protease activity"}]}
